Measurements reported in PMC4977753, “Inhibition of ADAM10 promotes the clearance of Aβ across the BBB by reducing LRP1 ectodomain shedding” (Fluids and Barriers of the CNS, 2016).

Experiments:
[1] = tested on: LRP1 shedding in human brain endothelial cells (HBMEC); experiment: In vitro LRP1 shedding in HBMEC monolayers (LRP1 ELISA of extracellular media); format: cell-based; conditions: 48 h, 37 °C
Experimental: Human Brain Microvessel endothelial cells (HBMECs) (ScienCell, USA) were seeded at 50,000 cells per cm^2 onto fibronectin-coated 6-well plates as previously described by our group. When approximately 90 % confluent, cells were treated with Aβ42 (2 μM) or both Aβ42 and the ADAM10-selective inhibitor GI254023X (1 μM) (Sigma-Aldrich, USA) and incubated at 37 °C for 48 h. […] After the 48 h incubation, the extracellular media was collected and the level of soluble LRP1 was assessed using an ELISA for LRP1 (Cat# SEB010Hu, Cedar Lane Labs, USA).
Fig. 1 LRP1shedding in human brain endothelial cells (HBMEC) following ADAM10 inhibition. HBMEC monolayers were exposed to human Aβ42 (2 μM) alone, Aβ42 (2 μM) and the ADAM10 inhibitor GI254023X (1 μM) for 48 h at 37 °C. LRP shedding was assessed by examining LRP content in the extracellular media using an LRP1 ELISA. Values represent mean ± SEM (n = 3) and are expressed as ng of extracellular LRP1 per ml of media. *p < 0.05 as determined by one-way ANOVA followed by Tukey’s post hoc analysis

mice = conditions: 200 mg/kg i.p. once per day for 5 consecutive days; cited from earlier work
Experimental: PSAPP mice at 35 weeks of age were injected intraperitoneally with 200 mg/kg of GI254023X or vehicle (DMSO) once per day for 5 consecutive days. At this age, PSAPP mice display elevated levels of Aβ peptides in the brain [22]. […] One hour after the final injection, the mice were euthanatized and plasma and brain tissue were collected. The right hemisphere was used to examine the levels of soluble and insoluble Aβ40 and Aβ42 in the brain. ...

[2] = tested on: in vitro BBB model (HBMEC monolayer); experiment: Fluorescein-Aβ42 transit across an in vitro BBB model; format: cell-based, human; conditions: fluorescein-Aβ42 2 μM basolateral, 60 min, 37 °C, basolateral-to-apical, n = 3
Experimental: The impact of ADAM10 on Aβ42 transcytosis was assessed using an in vitro BBB model previously described by our group. HBMECs were seeded onto fibronectin-coated 24-well membrane inserts forming a polarized monolayer representing the BBB. Aβ transcytosis across the BBB was assessed by exposing the basolateral side (“brain”) to 2 μM fluorescein-Aβ42 (rPeptide, USA) and treating the apical side (“blood”) with the ADAM10-selective inhibitor GI254023X (0.1–1 μM). After 60 min of incubation at 37 °C, samples were collected from the apical compartment to assess the basolateral-to-apical transcytosis of fluorescein-Aβ across the BBB model.
Fig. 2 Fluorescin-Aβ42 transit across an in vitro BBB model following ADAM10 inhibition. Fluorescin-Aβ42 (2 μM) was exposed to the basolateral (“brain”) side of the in vitro BBB model, while various concentrations of the ADAM10 inhibitor GI254023X (0, 0.1, 1, and 10 μM) were exposed to the apical (“blood”) compartment. Following incubation at 37 °C, samples were collected from the […] at 60 min to assess the basolateral-to-apical transcytosis of fluorescin-Aβ42 across the BBB model. Values represent mean ± SEM (n = 3) and are expressed as the percentage change from control conditions. *p < 0.05; **p < 0.01; ***p < 0.001 as determined by one-way ANOVA followed by Tukey’s post hoc analysis

PSAPP mice [3] = experiment: Tolerability of the GI254023X treatment regimen in PSAPP mice; format: in vivo; conditions: 200 mg/kg i.p. once per day for 5 days
Experimental: PSAPP mice at 35 weeks of age were injected intraperitoneally with 200 mg/kg of GI254023X or vehicle (DMSO) once per day for 5 consecutive days. At this age, PSAPP mice display elevated levels of Aβ peptides in the brain [22]. […] One hour after the final injection, the mice were euthanatized and plasma and brain tissue were collected. The right hemisphere was used to examine the levels of soluble and insoluble Aβ40 and Aβ42 in the brain. […] Quantification of Aβ40 and Aβ42 in the GS, GI, and plasma fractions was determined using an ELISA for human Aβ40 and Aβ42 (Invitrogen, USA) and expressed as ng of Aβ per μg total protein. […] LRP1 levels in the soluble brain fraction and plasma were assessed using a mouse ELISA for LRP1 (Cedar Lane Labs, USA). Soluble brain LRP1 was normalized to the total protein content in the brain homogenate as determined by the BCA protein assay (Thermo Scientific, USA). Soluble brain LRP1 levels were expressed as ng of LRP1 per mg protein. Plasma LRP1 levels were expressed as ng/ml. […] The sAPPα levels were normalized to the total protein content in the brain homogenate as determined by the BCA protein assay and expressed as ng of sAPPα per mg protein.

PSAPP mice [4] = experiment: Aβ, soluble LRP1 and sAPPα levels in PSAPP mice following ADAM10 inhibition; format: in vivo, mouse; conditions: 200 mg/kg i.p. once per day for 5 days
Experimental: PSAPP mice at 35 weeks of age were injected intraperitoneally with 200 mg/kg of GI254023X or vehicle (DMSO) once per day for 5 consecutive days. At this age, PSAPP mice display elevated levels of Aβ peptides in the brain [22]. […] One hour after the final injection, the mice were euthanatized and plasma and brain tissue were collected. The right hemisphere was used to examine the levels of soluble and insoluble Aβ40 and Aβ42 in the brain. Briefly, the hemispheres were homogenized by sonication in 700 μl lysis buffer [M-PER + 1 % EDTA +0.2 % PMSF (Thermo Scientific, USA)] supplemented with Halt protease and phosphatase inhibitor cocktail (Thermo Scientific, USA) on ice before centrifugation at 14000g for 30 min at 4 °C. 100 μl of the resulting supernatant was mixed with 5 M guanidine in TRIS buffer resulting in the guanidine soluble (GS) fraction. For the guanidine insoluble (GI) fraction, 100 μl of the guanidine stock was combined with the original tissue pellet. Both GS and GI fractions were subsequently incubated at room temperature for 1 h and were mixed every 15 min. All samples were stored at −80 °C prior to analysis. Quantification of Aβ40 and Aβ42 in the GS, GI, and plasma fractions was determined using an ELISA for human Aβ40 and Aβ42 (Invitrogen, USA) and expressed as ng of Aβ per μg total protein. The left hemisphere was used to examine the levels of soluble LRP1 in the brain. Here, the hemisphere was homogenized using a Dounce homogenizer in ice cold in HBSS using the same procedure as the in vivo LRP1 shedding studies above. LRP1 levels in the soluble brain fraction and plasma were assessed using a mouse ELISA for LRP1 (Cedar Lane Labs, USA). Soluble brain LRP1 was normalized to the total protein content in the brain homogenate as determined by the BCA protein assay (Thermo Scientific, USA). Soluble brain LRP1 levels were expressed as ng of LRP1 per mg protein. Plasma LRP1 levels were expressed as ng/ml. In addition, sAPPα levels were examined in the brain homogenate of these same animals using an ELISA for sAPPα (IBL international, USA). The sAPPα levels were normalized to the total protein content in the brain homogenate as determined by the BCA protein assay and expressed as ng of sAPPα per mg protein.
Fig. 4 LRP1 shedding brain and plasma following ADAM10 modulation in a mouse model of AD. The ADAM10 inhibitor GI254023X (200 mg/kg) or vehicle (DMSO) was administered via intraperitoneal injection once per day for five consecutive days to PSAPP mice (35 weeks of age). One hour after the final injection, the brains and plasma was collected and the soluble brain fraction a and the plasma b was probed for LRP using an ELISA. Values represent mean ± SEM (n = 8–9 [soluble brain LRP1] or 5 [soluble plasma LRP1]) and are expressed as the amount of LRP per mg total protein or per ml. *p < 0.05 as determined by an unpaired t test
Fig. 5 Levels of sAPPα in the brain following ADAM10 modulation in a mouse model of AD. PSAPP mice (35 weeks of age) were treated in an acute 5-day treatment paradigm with ADAM10 inhibitor GI254023X (200 mg/kg) or vehicle (DMSO) which were administered via intraperitoneal injection. One hour after the final treatment, the brains were collected and sAPPα in the whole brain homogenate was probed using an sAPPα ELISA. Values represent mean ± SEM (n = 8–9) and are expressed as the amount of sAPPα per mg total protein. Statistical significance determined by an unpaired t test
Fig. 6 Aβ plasma levels following ADAM10 modulation in a mouse model of AD. The ADAM10 inhibitor GI254023X (200 mg/kg) or vehicle (DMSO) was administered via intraperitoneal injection once per day for five consecutive days to PSAPP mice (35 weeks of age). One hour after the final injection, the plasma was collected and probed for a Aβ40 and b Aβ42 by ELISA. Values represent mean ± SEM (n = 8–9) and are expressed as the amount of Aβ40 or Aβ42 per ml of plasma. […]

[5] = tested on: in vitro BBB model (HBMEC monolayer); experiment: Permeability of paracellular marker Lucifer yellow-dextran across the in vitro BBB model (integrity control); format: cell-based, human; conditions: 10 kDa Lucifer yellow-dextran, any of the GI254023X concentrations, data not shown
[6] = PSAPP mice, guanidine insoluble fraction, ELISA, n = 8-9, not statistically significant
[7] = PSAPP mice, guanidine soluble fraction, ELISA, n = 8-9, not statistically significant

Compound | extracellular shedding of LRP1 compared to control conditions ([1]; Aβ42 2 μM, mean ± SEM n = 3, significant (p < 0.05)) | effect on Aβ42-induced extracellular LRP1 shedding ([1]; Aβ42 2 μM plus GI254023X 1 μM, n = 3) | ADAM10 activity in mice under this treatment regime (mice) | tolerability of treatment regime (mice) | transcytosis of fluorescein-Aβ across in vitro BBB model (trend) ([2]; GI254023X 0.1, 1, 10 μM apical) | increase of fluorescein-Aβ transcytosis across in vitro BBB model versus control ([2]; significant increases at concentrations higher than 1 μM GI254023X) | tolerability of treatment regimen (appearance, behavior, weight loss) (PSAPP mice [3]) | reduction of soluble LRP1 in the brain versus vehicle (PSAPP mice [4]; PSAPP mice 35 weeks, 1 h after final injection, soluble brain fraction, ELISA, n = 8-9, p < 0.05) | reduction of insoluble Aβ40 in the brain versus vehicle (PSAPP mice [4]; [6]) | reduction of insoluble Aβ42 in the brain versus vehicle (PSAPP mice [4]; [6]) | reduction of soluble Aβ40 in the brain versus vehicle (PSAPP mice [4]; [7]) | reduction of soluble Aβ42 in the brain versus vehicle (PSAPP mice [4]; [7]) | LRP1 levels in the plasma versus vehicle (PSAPP mice [4]; PSAPP mice, plasma, ELISA, n = 5) | effect on Aβ42 plasma levels versus vehicle (PSAPP mice [4]; PSAPP mice, plasma, ELISA, n = 8-9) | increase of Aβ40 in the plasma versus vehicle (PSAPP mice [4]; PSAPP mice, plasma, ELISA, n = 8-9, significant) | level of sAPPα in the brain versus vehicle (PSAPP mice [4]; PSAPP mice, whole brain homogenate, sAPPα ELISA, n = 8-9) | BBB permeability of the paracellular marker Lucifer yellow-dextran versus control [5]
Aβ42: human recombinant beta-amyloid 42 peptide, used to induce LRP1 shedding; fluorescein-labeled form used as transport probe | twofold |  |  |  |  |  |  |  |  |  |  |  |  |  |  |  | 
CNC(=O)[C@@H](NC(=O)[C@H](CCCc1ccccc1)[C@H](C)N(O)C=O)C(C)(C)C [GI254023X] |  | completely abrogated the effect of Aβ42 on shedding | effectively inhibit ADAM10 activity | well tolerated with no adverse effects reported | increased following GI254023X treatment in a dose dependent manner | ≥ 1.25 fold | well tolerated | 60% | 1.20 fold | 1.20 fold | 1.15 fold | 1.25 fold | not significantly different | not significant | 1.45 fold | No significant difference | no significant difference
